Experimental data reported in US20060153933A1 (priority 2002, published 2006).
Like-named read-outs stand apart in the source and are kept apart here.

What was measured:
[1] = system: Phytophthora infestans (PHYTIN); experiment: whole plant or invertebrate; assay type: in vivo; conditions: for pest or weed control at 1.85 ppm: read-out: % Disease Control (observed)
[2] = system: Plasmopara viticola (PLASVI); experiment: whole plant or invertebrate; assay type: in vivo; conditions: for pest or weed control at 5.56 ppm / pest or weed control at 1.85 ppm / pest or weed control at 0.62 ppm: Plasmopara viticola; for pest or weed control at 5.56 ppm: 5.56 ppm alone; for pest or weed control at 1.85 ppm: 1.85 ppm alone; for pest or weed control at 0.62 ppm: 0.62 ppm alone
[3] = 48 h, read-out: % Disease Control (observed), 2DP
[4] = 24 h, read-out: % Disease Control (observed), 1DP, Table 14
[5] = PHYTIN 2DP, applied alone at 5.56 ppm
[6] = PLASVI 2DP, applied alone at 5.56 ppm

`CCCOC(=O)NCCCN(C)C` [Propamocarb, propamocarb] was tested, and the pest or weed control at 1.85 ppm ([1]; Phytophthora infestans, 48 h) was 1.8%, the pest or weed control at 0.62 ppm ([1]; Phytophthora infestans, 48 h, read-out: % Disease Control (observed), 2DP, 0.62 ppm alone) was 0% and the pest or weed control at 5.56 ppm [2, 3] was 0%.

`COC(=O)N(OC)c1ccccc1COc1ccn(-c2ccc(Cl)cc2)n1` [Pyraclostrobin, pyraclostrobin] gave a pest or weed control at 1.85 ppm ([1]; Phytophthora infestans, 48 h) of 78.9%, a pest or weed control at 5.56 ppm ([1]; Phytophthora infestans, 48 h, read-out: % Disease Control (observed), 2DP, 5.56 ppm alone) of 89.5% and a pest or weed control at 1.85 ppm [2, 4] of 0%. For the same compound, the pest or weed control at 5.56 ppm [2, 4] was 0% and the pest or weed control at 0.62 ppm [2, 3] was 61.4%.

`CON=C(C(=O)OC)c1ccccc1CON=C(C)c1cccc(C(F)(F)F)c1` [Trifloxystrobin, trifloxystrobin] was tested, and the pest or weed control at 1.85 ppm ([1]; Phytophthora infestans, 48 h) was 24.6%, the pest or weed control at 0.62 ppm [2, 3] was 1.8% and the pest or weed control at 1.85 ppm [2, 3] was 21.1%.

In the case of `CCC(C)(NC(=O)c1cc(Cl)c(C)c(Cl)c1)C(=O)CCl` (stereo not drawn) [Zoxamide, zoxamide], the “% Disease Control (Observed)” value ([1]; 4DP, 1.90 ppm alone) is reported as 55.30%, the “% Disease Control (Observed)” value ([1]; 4DP, 11.20 ppm alone) is reported as 19.30% and the “% Disease Control (Observed)” value ([1]; 4DP, 16.70 ppm alone) is reported as 34.90%. For the same compound, the “% Disease Control (Observed)” value ([1]; PHYTIN 2DP, applied alone at 0.4 ppm) was 1.8%, the “% Disease Control (Observed)” value ([1]; PHYTIN 2DP, applied alone at 1.1 ppm) was 14% and the “% Disease Control (Observed)” value ([1]; PHYTIN 3DP, applied alone at 1.1 ppm) was 10.5%. For the same compound, the “% Disease Control (Observed)” value ([1]; PHYTIN 6DP, applied alone at 1.1 ppm) was 7%, the “% Disease Control (Observed)” value ([1]; PHYTIN 6DP, applied alone at 3.3 ppm) was 40.4% and the “% Disease Control (Observed)” value ([2]; 4DP, 1.90 ppm alone) was 5.30%. The “% Disease Control (Observed)” value ([2]; 4DP, 5.60 ppm alone) was 57.90%, the “% Disease Control (Observed)” value ([2]; PLASVI 2DP, applied alone at 0.4 ppm) was 3.5% and the “% Disease Control (Observed)” value ([2]; PLASVI 2DP, applied alone at 1.1 ppm) was 21.1%. The “% Disease Control (Observed)” value ([2]; PLASVI 2DP, applied alone at 3.3 ppm) was 36.8%, the “% Disease Control (Observed)” value ([2]; PLASVI 3DP, applied alone at 0.4 ppm) was 3.5% and the “% Disease Control (Observed)” value ([2]; PLASVI 3DP, applied alone at 1.1 ppm) was 17.5%. The “% Disease Control (Observed)” value ([2]; PLASVI 6DP, applied alone at 3.3 ppm) was 10.5%.

For Maneb, the “% Disease Control (Observed)” value ([1]; PHYTIN 3DP, applied alone at 5.56 ppm) was 14.0%, the “% Disease Control (Observed)” value ([1]; in vivo) was 3.5% and the “% Disease Control (Observed)” value ([2]; PLASVI 3DP, applied alone at 16.70 ppm) was 24.6%.

Metiram was tested, and the “% Disease Control (Observed)” value [1, 5] was 0.0%, the “% Disease Control (Observed)” value ([2]; PLASVI 2DP, applied alone at 1.85 ppm) was 5.3% and the “% Disease Control (Observed)” value [2, 6] was 8.8%.

With Propineb the “% Disease Control (Observed)” value [1, 5] was 0.0% and the “% Disease Control (Observed)” value [2, 6] was 0.0%.

For mancozeb, the “% Disease Control (Observed)” value ([1]; 4DP, 0.60 ppm alone) was 5.3%, the “% Disease Control (Observed)” value ([1]; 4DP, 1.9 ppm alone) was 8.8% and the “% Disease Control (Observed)” value ([1]; 4DP, 5.6 ppm alone) was 26.3%. The “% Disease Control (Observed)” value ([1]; 4DP, 16.70 ppm alone) was 40.4%, the “% Disease Control (Observed)” value ([1]; PHYTIN 3DP, applied alone at 8.9 ppm) was 5.3% and the “% Disease Control (Observed)” value ([2]; 1DP, 2.7 ppm alone) was 14%. For the same compound, the “% Disease Control (Observed)” value ([2]; 1DP, 8.0 ppm alone) was 33.3%, the “% Disease Control (Observed)” value ([2]; 4DP, 1.9 ppm alone) was 0% and the “% Disease Control (Observed)” value ([2]; 4DP, 16.7 ppm alone) was 12.3%. For the same compound, the “% Disease Control (Observed)” value ([2]; PLASVI 3DP, applied alone at 8.9 ppm) was 17.5%.
